Reference: PubChem BioAssay (NCI)
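Compound exposure: 48 hours, 5 concentrations, 96-well plates. TGI denotes the concentration required for complete inhibition of growth.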

What was measured:
Assay in all cases: NCI tumour cell line growth inhibition, 48 h
HT29 colon = test system: HT29 colon
T-47D breast = test system: T-47D breast
LOX IMVI melanoma = test system: LOX IMVI melanoma
HOP-62 NSCLC = test system: HOP-62 NSCLC
NCI/ADR-RES ovarian = test system: NCI/ADR-RES ovarian
NCI-H460 lung = test system: NCI-H460 lung
RXF 393 renal = test system: RXF 393 renal
SK-MEL-5 melanoma = test system: SK-MEL-5 melanoma
MDA-N = test system: MDA-N
OVCAR-5 ovarian = test system: OVCAR-5 ovarian
UO-31 renal = test system: UO-31 renal
CAKI-1 renal = test system: CAKI-1 renal
SNB-19 CNS = test system: SNB-19 CNS
MOLT-4 leukemia = test system: MOLT-4 leukemia
A549 NSCLC = test system: A549 NSCLC
A498 renal = test system: A498 renal
K-562 leukemia = test system: K-562 leukemia
RPMI-8226 leukemia = test system: RPMI-8226 leukemia
SN12C renal = test system: SN12C renal
U251 CNS = test system: U251 CNS
NCI-H226 lung = test system: NCI-H226 lung
SW-620 colon = test system: SW-620 colon
DU-145 prostate = test system: DU-145 prostate
ACHN renal = test system: ACHN renal
HOP-92 NSCLC = test system: HOP-92 NSCLC
SF-539 CNS = test system: SF-539 CNS
786-0 renal = test system: 786-0 renal
HCT-15 colon = test system: HCT-15 colon
SNB-75 CNS = test system: SNB-75 CNS
SF-295 CNS = test system: SF-295 CNS
KM12 colon = test system: KM12 colon
HCT-116 colon = test system: HCT-116 colon
TK-10 renal = test system: TK-10 renal
BT-549 breast = test system: BT-549 breast
MALME-3M melanoma = test system: MALME-3M melanoma
UACC-257 melanoma = test system: UACC-257 melanoma
OVCAR-3 ovarian = test system: OVCAR-3 ovarian
SK-MEL-2 melanoma = test system: SK-MEL-2 melanoma
COLO 205 colon = test system: COLO 205 colon
MDA-MB-435 = test system: MDA-MB-435
CCRF-CEM leukemia = test system: CCRF-CEM leukemia
SF-268 CNS = test system: SF-268 CNS
SK-OV-3 ovarian = test system: SK-OV-3 ovarian
UACC-62 melanoma = test system: UACC-62 melanoma
MCF7 breast = test system: MCF7 breast
NCI-H23 lung = test system: NCI-H23 lung
HL-60(TB) leukemia = test system: HL-60(TB) leukemia
OVCAR-8 ovarian = test system: OVCAR-8 ovarian
EKVX NSCLC = test system: EKVX NSCLC
MDA-MB-231 breast = test system: MDA-MB-231 breast
OVCAR-4 ovarian = test system: OVCAR-4 ovarian
HCC-2998 colon = test system: HCC-2998 colon
PC-3 prostate = test system: PC-3 prostate
M14 melanoma = test system: M14 melanoma
NCI-H522 lung = test system: NCI-H522 lung
SK-MEL-28 melanoma = test system: SK-MEL-28 melanoma
HS 578T breast = test system: HS 578T breast
IGROV1 ovarian = test system: IGROV1 ovarian

In the case of `CC1CC[C@@H](C(C)C)[C@H](Oc2nnc(C3OC(CO)C(O)C3O)o2)C1` (stereo partly drawn), the TGI (HT29 colon) is reported as greater than 100 µM, the TGI (T-47D breast) is reported as greater than 100 µM and the TGI (LOX IMVI melanoma) is reported as greater than 100 µM. The TGI (HOP-62 NSCLC) was greater than 100 µM, the TGI (NCI/ADR-RES ovarian) was greater than 100 µM and the TGI (NCI-H460 lung) was greater than 100 µM. It also gave a TGI (RXF 393 renal) greater than 100 µM, a TGI (SK-MEL-5 melanoma) greater than 100 µM and a TGI (MDA-N) greater than 100 µM. The TGI (OVCAR-5 ovarian) was greater than 100 µM, the TGI (UO-31 renal) was greater than 100 µM and the TGI (CAKI-1 renal) was greater than 100 µM. It also gave a TGI (SNB-19 CNS) greater than 100 µM, a TGI (MOLT-4 leukemia) greater than 100 µM and a TGI (A549 NSCLC) greater than 100 µM. It also gave a TGI (A498 renal) greater than 100 µM, a TGI (K-562 leukemia) greater than 100 µM and a TGI (RPMI-8226 leukemia) greater than 100 µM. For the same compound, the TGI (SN12C renal) was greater than 100 µM, the TGI (U251 CNS) was greater than 100 µM and the TGI (NCI-H226 lung) was greater than 100 µM. For the same compound, the TGI (SW-620 colon) was greater than 100 µM, the TGI (DU-145 prostate) was greater than 100 µM and the TGI (ACHN renal) was greater than 100 µM. The TGI (HOP-92 NSCLC) was greater than 100 µM, the TGI (SF-539 CNS) was greater than 100 µM and the TGI (786-0 renal) was greater than 100 µM. It also gave a TGI (HCT-15 colon) greater than 100 µM, a TGI (SNB-75 CNS) greater than 100 µM and a TGI (SF-295 CNS) greater than 100 µM. It also gave a TGI (KM12 colon) greater than 100 µM, a TGI (HCT-116 colon) greater than 100 µM and a TGI (TK-10 renal) greater than 100 µM. For the same compound, the TGI (BT-549 breast) was greater than 100 µM, the TGI (MALME-3M melanoma) was greater than 100 µM and the TGI (UACC-257 melanoma) was greater than 100 µM. It also gave a TGI (OVCAR-3 ovarian) greater than 100 µM, a TGI (SK-MEL-2 melanoma) greater than 100 µM and a TGI (COLO 205 colon) greater than 100 µM. It also gave a TGI (MDA-MB-435) greater than 100 µM, a TGI (CCRF-CEM leukemia) greater than 100 µM and a TGI (SF-268 CNS) greater than 100 µM. For the same compound, the TGI (SK-OV-3 ovarian) was greater than 100 µM, the TGI (UACC-62 melanoma) was greater than 100 µM and the TGI (MCF7 breast) was greater than 100 µM. For the same compound, the TGI (NCI-H23 lung) was greater than 100 µM, the TGI (HL-60(TB) leukemia) was greater than 100 µM and the TGI (OVCAR-8 ovarian) was greater than 100 µM. For the same compound, the TGI (EKVX NSCLC) was greater than 100 µM, the TGI (MDA-MB-231 breast) was greater than 100 µM and the TGI (OVCAR-4 ovarian) was greater than 100 µM. For the same compound, the TGI (HCC-2998 colon) was greater than 100 µM and the TGI (PC-3 prostate) was greater than 100 µM.
Work on `CC(C)[C@@H]1NC(=O)[C@H]2N=C(O[C@@H]2C)[C@@H]2CCCN2C(=O)[C@H](Cc2ccccc2)NC(=O)[C@@H]2CSC(=N2)[C@@H](Cc2ccccc2)NC(=O)[C@@H]2CSC1=N2` yielded a TGI (HT29 colon) greater than 50 µM, a TGI (T-47D breast) greater than 50 µM and a TGI (M14 melanoma) greater than 50 µM. For the same compound, the TGI (LOX IMVI melanoma) was greater than 50 µM, the TGI (HOP-62 NSCLC) was greater than 50 µM and the TGI (NCI/ADR-RES ovarian) was greater than 50 µM. The TGI (RXF 393 renal) was greater than 50 µM, the TGI (SK-MEL-5 melanoma) was greater than 50 µM and the TGI (MDA-N) was greater than 50 µM. It also gave a TGI (OVCAR-5 ovarian) greater than 50 µM, a TGI (UO-31 renal) greater than 50 µM and a TGI (CAKI-1 renal) greater than 50 µM. The TGI (SNB-19 CNS) was greater than 50 µM, the TGI (MOLT-4 leukemia) was greater than 50 µM and the TGI (A549 NSCLC) was greater than 50 µM. For the same compound, the TGI (K-562 leukemia) was greater than 50 µM, the TGI (NCI-H522 lung) was greater than 50 µM and the TGI (RPMI-8226 leukemia) was 32.1 µM. The TGI (SN12C renal) was greater than 50 µM, the TGI (U251 CNS) was greater than 50 µM and the TGI (NCI-H226 lung) was greater than 50 µM. For the same compound, the TGI (SW-620 colon) was greater than 50 µM, the TGI (DU-145 prostate) was greater than 50 µM and the TGI (ACHN renal) was greater than 50 µM. It also gave a TGI (SF-539 CNS) greater than 50 µM, a TGI (786-0 renal) greater than 50 µM and a TGI (HCT-15 colon) greater than 50 µM. It also gave a TGI (SNB-75 CNS) of 6.28 µM, a TGI (SF-295 CNS) greater than 50 µM and a TGI (KM12 colon) greater than 50 µM. It also gave a TGI (HCT-116 colon) greater than 50 µM, a TGI (TK-10 renal) greater than 50 µM and a TGI (BT-549 breast) greater than 50 µM. For the same compound, the TGI (MALME-3M melanoma) was greater than 50 µM, the TGI (UACC-257 melanoma) was greater than 50 µM and the TGI (OVCAR-3 ovarian) was greater than 50 µM. The TGI (SK-MEL-2 melanoma) was greater than 50 µM, the TGI (COLO 205 colon) was greater than 50 µM and the TGI (MDA-MB-435) was greater than 50 µM. It also gave a TGI (SK-MEL-28 melanoma) greater than 50 µM, a TGI (CCRF-CEM leukemia) greater than 50 µM and a TGI (HS 578T breast) greater than 50 µM. For the same compound, the TGI (SF-268 CNS) was greater than 50 µM, the TGI (SK-OV-3 ovarian) was greater than 50 µM and the TGI (IGROV1 ovarian) was greater than 50 µM. It also gave a TGI (UACC-62 melanoma) greater than 50 µM, a TGI (MCF7 breast) greater than 50 µM and a TGI (NCI-H23 lung) greater than 50 µM. For the same compound, the TGI (HL-60(TB) leukemia) was 41.3 µM, the TGI (OVCAR-8 ovarian) was greater than 50 µM and the TGI (EKVX NSCLC) was greater than 50 µM. The TGI (MDA-MB-231 breast) was greater than 50 µM, the TGI (OVCAR-4 ovarian) was greater than 50 µM and the TGI (HCC-2998 colon) was greater than 50 µM. It also gave a TGI (PC-3 prostate) greater than 50 µM.
